Data from patent publication US20260297085A1, “1 H-PYRROLO[2,3-B]PYRIDIN-4-YL]-2-OXOPYRROLIDINE-3-CARBONITRILE DERIVATIVES AS TYROSINE KINASE 2 (TYK2) INHIBITORS FOR THE TREATMENT OF INFLAMMATORY DISEASES” (BIOGEN MA INC., priority 2023, published 2026).

Tests used:
[1] = molecular target: T1, human JAK2 kinase domain (JH1) (Homo sapiens, UniProt O60674); test: JH1 biochemical assay for JAK2 (ADP-Glo kinase assay, recombinant JH1 catalytic domain, JAK3-974 peptide, 15 μM ATP); details: JAK2 JH1, ADP-Glo
T1 construct: recombinantly generated catalytic kinase (also known as JH1) domain of human JAK1, JAK2, JAK3 and TYK2
Summary of the method: (§1)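 Luminescent ADP read-out after residual ATP depletion, 100 min reaction. Kinase domain concentrations were 4 nM (JAK1), 0.2 nM (JAK2), 0.3 nM (JAK3) and 2 nM (TYK2), each with 50 μM peptide. IC50 values came from 4-parameter logistic fits over 11 points, 3-fold steps, top 10 μM or 1 μM.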

[2] = molecular target: T2, human JAK1 kinase domain (JH1) (Homo sapiens, UniProt P23458); test: JH1 biochemical assay for JAK1 (ADP-Glo kinase assay, recombinant JH1 catalytic domain, JAK3-342 peptide, 35 μM ATP); details: JAK1 JH1, ADP-Glo
T2 construct: recombinantly generated catalytic kinase (also known as JH1) domain of human JAK1, JAK2, JAK3 and TYK2
Summary of the method: as §1

[3] = molecular target: JAK2 kinase activity on STAT5 in TF1 cells (Homo sapiens, UniProt O60674); test: pSTAT5 cell assay (MSD; TF1 cells, 30 ng/mL IL-3 stimulation); type: cell-based; details: 30 ng/mL IL-3, 15 minutes
Summary of the method: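 IC50 from a 4-parameter logistic fit of normalized pSTAT5 signal, measured by MSD in lysates of TF1 cells. Cells were serum-starved, exposed to compound for 1 h (top concentration 10 μM, four-fold, 10 points), then given IL-3 at 30 ng/mL for 15 min.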

[4] = molecular target: T3, human TYK2 kinase domain (JH1) (Homo sapiens, UniProt P29597); test: JH1 biochemical assay for TYK2 (ADP-Glo kinase assay, recombinant JH1 catalytic domain, JAK3-974 peptide, 10 μM ATP); details: TYK2 JH1, ADP-Glo
T3 construct: recombinantly generated catalytic kinase (also known as JH1) domain of human JAK1, JAK2, JAK3 and TYK2
T3 sequence (P29597 897-1176 limits assumed): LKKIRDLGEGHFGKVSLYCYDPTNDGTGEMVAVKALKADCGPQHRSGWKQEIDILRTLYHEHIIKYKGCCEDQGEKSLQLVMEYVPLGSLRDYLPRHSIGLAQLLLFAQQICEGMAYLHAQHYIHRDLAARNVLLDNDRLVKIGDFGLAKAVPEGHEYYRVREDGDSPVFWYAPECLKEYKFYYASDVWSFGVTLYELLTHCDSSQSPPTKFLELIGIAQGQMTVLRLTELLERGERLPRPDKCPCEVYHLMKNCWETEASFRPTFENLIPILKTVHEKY
Summary of the method: as §1

[5] = molecular target: T4, human JAK3 kinase domain (JH1) (Homo sapiens, UniProt P52333); test: JH1 biochemical assay for JAK3 (ADP-Glo kinase assay, recombinant JH1 catalytic domain, JAK3-974 peptide, 4 μM ATP); details: JAK3 JH1, ADP-Glo
T4 construct: recombinantly generated catalytic kinase (also known as JH1) domain of human JAK1, JAK2, JAK3 and TYK2
Summary of the method: as §1

[6] = molecular target: Tyk2 kinase activity on STAT4 in NK92 cells (Homo sapiens, UniProt P29597); test: pSTAT4 cell assay (MSD; NK92 cells, 30 ng/mL IL2 stimulation); type: cell-based; details: 30 ng/mL IL2, 15 minutes
Summary of the method: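 Read-out: phospho-STAT in NK92 lysates, MSD format, anti-STAT4 antibodies. Cells were serum-starved, given compound for 1 hr (10 μM top, four-fold, 10 points) and IL2-stimulated (30 ng/mL, 15 min). Normalized percent activity vs log concentration, 4-parameter logistic fit gave IC50.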

[7] = molecular target: JAK1 kinase activity on STAT3 in TF1 cells (Homo sapiens, UniProt P23458); test: pSTAT3 cell assay (MSD; TF1 cells, 30 ng/mL IL-6 stimulation); type: cell-based; details: 30 ng/mL IL-6, 15 minutes
Summary of the method: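 IC50 values reflect 4-parameter logistic fits of normalized pSTAT3 signal, measured by MSD in lysed TF1 cells. Cells were serum-starved and treated with compound for 1 h (top concentration 10 μM) before a 15 min IL-6 challenge.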

Sequence of JAK1 kinase activity on STAT3 in TF1 cells (P23458 whole entry): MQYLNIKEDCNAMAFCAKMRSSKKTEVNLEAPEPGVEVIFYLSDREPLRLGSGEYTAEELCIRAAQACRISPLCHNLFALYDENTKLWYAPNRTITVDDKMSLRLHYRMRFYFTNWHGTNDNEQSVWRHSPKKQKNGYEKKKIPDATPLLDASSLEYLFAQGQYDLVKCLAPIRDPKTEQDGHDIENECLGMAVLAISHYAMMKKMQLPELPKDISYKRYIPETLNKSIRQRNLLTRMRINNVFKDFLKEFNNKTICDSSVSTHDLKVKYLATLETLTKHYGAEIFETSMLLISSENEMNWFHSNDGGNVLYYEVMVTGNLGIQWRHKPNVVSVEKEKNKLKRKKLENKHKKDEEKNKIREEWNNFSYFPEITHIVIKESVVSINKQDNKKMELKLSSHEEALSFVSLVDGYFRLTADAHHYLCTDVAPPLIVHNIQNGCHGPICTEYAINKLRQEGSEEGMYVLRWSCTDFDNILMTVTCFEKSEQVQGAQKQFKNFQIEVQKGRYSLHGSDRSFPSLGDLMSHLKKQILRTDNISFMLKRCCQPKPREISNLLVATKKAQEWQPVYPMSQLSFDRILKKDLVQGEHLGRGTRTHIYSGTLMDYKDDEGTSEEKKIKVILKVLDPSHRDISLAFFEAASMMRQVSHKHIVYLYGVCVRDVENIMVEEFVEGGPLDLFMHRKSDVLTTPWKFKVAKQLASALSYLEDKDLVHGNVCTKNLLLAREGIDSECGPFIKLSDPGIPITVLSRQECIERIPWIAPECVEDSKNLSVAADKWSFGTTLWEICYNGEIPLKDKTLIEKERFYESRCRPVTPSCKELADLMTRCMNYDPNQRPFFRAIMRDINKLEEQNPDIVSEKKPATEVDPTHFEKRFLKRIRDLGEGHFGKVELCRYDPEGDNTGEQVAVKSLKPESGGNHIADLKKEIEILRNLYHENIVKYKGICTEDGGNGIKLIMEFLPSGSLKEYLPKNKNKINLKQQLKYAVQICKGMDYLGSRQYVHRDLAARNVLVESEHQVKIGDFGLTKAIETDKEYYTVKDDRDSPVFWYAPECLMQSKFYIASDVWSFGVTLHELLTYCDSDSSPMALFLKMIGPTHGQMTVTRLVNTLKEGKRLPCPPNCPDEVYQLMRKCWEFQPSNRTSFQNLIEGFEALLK
Sequence of Tyk2 kinase activity on STAT4 in NK92 cells (P29597 whole entry): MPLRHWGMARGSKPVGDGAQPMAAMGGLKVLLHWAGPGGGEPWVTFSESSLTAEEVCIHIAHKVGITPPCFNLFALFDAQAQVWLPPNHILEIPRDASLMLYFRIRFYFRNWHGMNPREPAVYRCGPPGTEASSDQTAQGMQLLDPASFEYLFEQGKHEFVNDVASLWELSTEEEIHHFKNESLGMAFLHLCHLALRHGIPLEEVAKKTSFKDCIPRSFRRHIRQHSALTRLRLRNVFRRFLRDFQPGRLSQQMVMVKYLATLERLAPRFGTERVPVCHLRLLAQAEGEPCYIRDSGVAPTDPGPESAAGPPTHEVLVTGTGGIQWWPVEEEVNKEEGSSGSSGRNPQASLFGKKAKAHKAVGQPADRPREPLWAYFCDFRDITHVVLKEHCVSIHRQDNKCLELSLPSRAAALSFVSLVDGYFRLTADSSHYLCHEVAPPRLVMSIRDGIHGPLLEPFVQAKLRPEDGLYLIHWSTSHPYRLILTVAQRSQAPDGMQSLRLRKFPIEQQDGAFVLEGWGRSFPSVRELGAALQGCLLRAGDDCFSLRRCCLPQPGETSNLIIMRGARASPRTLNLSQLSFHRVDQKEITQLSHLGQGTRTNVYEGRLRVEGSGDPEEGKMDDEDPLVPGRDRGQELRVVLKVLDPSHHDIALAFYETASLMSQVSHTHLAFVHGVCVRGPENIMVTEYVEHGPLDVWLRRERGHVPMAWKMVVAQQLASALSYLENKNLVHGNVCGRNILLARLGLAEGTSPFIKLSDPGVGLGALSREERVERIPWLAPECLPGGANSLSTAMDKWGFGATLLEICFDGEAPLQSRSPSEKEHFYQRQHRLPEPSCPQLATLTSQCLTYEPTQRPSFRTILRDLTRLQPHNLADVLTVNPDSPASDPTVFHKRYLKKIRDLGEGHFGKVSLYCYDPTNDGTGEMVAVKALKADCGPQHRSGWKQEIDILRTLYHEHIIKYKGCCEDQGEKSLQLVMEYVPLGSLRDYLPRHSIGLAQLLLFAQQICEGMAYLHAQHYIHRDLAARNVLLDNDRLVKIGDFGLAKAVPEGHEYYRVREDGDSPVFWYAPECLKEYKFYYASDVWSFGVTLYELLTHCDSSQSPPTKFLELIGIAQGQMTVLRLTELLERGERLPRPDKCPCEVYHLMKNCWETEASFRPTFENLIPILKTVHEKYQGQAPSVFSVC
T2 sequence (P23458 875-1153 limits assumed): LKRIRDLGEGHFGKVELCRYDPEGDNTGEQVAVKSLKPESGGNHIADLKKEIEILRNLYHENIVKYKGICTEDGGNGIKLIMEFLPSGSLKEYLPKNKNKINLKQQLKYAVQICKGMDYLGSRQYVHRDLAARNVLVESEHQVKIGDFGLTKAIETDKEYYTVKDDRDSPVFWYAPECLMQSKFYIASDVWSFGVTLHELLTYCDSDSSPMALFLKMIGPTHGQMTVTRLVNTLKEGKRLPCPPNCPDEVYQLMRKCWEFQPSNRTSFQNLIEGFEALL
Sequence of JAK2 kinase activity on STAT5 in TF1 cells (O60674 whole entry): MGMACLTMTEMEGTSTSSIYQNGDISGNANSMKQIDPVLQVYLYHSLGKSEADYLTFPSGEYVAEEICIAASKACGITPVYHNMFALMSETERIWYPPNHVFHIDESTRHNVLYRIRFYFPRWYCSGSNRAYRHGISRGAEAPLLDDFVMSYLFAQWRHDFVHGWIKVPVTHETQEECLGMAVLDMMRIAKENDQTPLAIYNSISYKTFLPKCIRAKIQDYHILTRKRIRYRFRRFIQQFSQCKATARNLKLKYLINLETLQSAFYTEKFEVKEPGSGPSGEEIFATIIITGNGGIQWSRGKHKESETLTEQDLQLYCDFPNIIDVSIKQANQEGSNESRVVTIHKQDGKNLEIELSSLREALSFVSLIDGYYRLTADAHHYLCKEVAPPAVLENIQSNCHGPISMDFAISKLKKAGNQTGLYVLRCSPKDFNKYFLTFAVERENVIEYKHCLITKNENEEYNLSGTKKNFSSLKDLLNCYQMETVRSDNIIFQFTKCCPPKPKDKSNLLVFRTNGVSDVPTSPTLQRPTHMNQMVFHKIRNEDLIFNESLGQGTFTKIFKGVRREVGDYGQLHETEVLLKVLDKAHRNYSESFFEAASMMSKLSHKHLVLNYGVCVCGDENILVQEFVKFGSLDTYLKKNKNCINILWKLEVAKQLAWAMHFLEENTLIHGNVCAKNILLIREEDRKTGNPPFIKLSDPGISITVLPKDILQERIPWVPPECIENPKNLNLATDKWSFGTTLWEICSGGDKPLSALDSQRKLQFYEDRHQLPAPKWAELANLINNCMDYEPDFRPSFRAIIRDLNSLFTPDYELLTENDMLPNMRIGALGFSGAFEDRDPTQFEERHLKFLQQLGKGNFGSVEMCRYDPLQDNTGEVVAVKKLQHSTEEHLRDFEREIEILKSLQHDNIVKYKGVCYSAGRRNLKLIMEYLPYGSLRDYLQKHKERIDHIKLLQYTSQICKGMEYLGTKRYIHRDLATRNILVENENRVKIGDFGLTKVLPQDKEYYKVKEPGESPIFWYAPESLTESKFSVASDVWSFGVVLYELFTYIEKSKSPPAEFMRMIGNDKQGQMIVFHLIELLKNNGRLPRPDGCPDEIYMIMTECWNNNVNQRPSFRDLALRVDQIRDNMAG
T1 sequence (O60674 849-1124 limits assumed): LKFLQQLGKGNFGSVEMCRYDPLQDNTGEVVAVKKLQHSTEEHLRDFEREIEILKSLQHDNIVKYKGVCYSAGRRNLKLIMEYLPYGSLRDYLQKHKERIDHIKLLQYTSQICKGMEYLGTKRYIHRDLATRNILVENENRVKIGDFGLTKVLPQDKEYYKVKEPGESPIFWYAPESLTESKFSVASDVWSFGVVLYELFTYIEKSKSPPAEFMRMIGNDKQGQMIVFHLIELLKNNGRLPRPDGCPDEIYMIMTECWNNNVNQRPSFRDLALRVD
T4 sequence (P52333 822-1111 limits assumed): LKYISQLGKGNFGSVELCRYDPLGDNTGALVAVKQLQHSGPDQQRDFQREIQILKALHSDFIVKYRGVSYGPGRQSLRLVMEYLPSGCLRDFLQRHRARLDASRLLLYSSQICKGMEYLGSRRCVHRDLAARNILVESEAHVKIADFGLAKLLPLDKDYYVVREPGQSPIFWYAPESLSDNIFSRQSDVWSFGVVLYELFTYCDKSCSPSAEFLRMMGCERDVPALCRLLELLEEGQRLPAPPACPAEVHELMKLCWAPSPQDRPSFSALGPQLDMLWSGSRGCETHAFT

| Structure (SMILES) | IC50 [1] | IC50 [2] | IC50 [3] | IC50 [4] | IC50 [5] | IC50 [6] | IC50 [7] |
| --- | --- | --- | --- | --- | --- | --- | --- |
| C[C@@H]1CN(c2ccnc3cc(-c4cnn(C)c4)oc23)C(=O)[C@]1(C#N)C1CC1 [Example 268, (3R,4S)-3-cyclopropyl-4-methyl-1-(2-(1-methyl-1H-pyrazol-4-yl)furo[3,2-b]pyridin-7-yl)-2-oxopyrrolidine-3-carbonitrile] | 100 to 1000 nM | 100 to 1000 nM | > 10000 nM | 5 to 20 nM | 100 to 1000 nM | 50 to 100 nM | 1000 to 5000 nM |
| C[C@@H]1CN(c2cc(-c3cnn(C)c3)cn3nccc23)C(=O)[C@]1(C#N)C1CC1 [Example 271, (3R,4S)-3-cyclopropyl-4-methyl-1-(6-(1-methyl-1H-pyrazol-4-yl)pyrazolo[1,5-a]pyridin-4-yl)-2-oxopyrrolidine-3-carbonitrile] | 1000 to 5000 nM | 100 to 1000 nM | > 10000 nM | 5 to 20 nM | 100 to 1000 nM | > 100 nM | > 10000 nM |
| C[C@@H]1CN(c2nn(-c3cnn(C)c3)c3cnccc23)C(=O)[C@]1(C#N)C1CC1 [Example 275, (3R,4S)-3-cyclopropyl-4-methyl-1-(1-(1-methyl-1H-pyrazol-4-yl)-1H-pyrazolo[3,4-c]pyridin-3-yl)-2-oxopyrrolidine-3-carbonitrile] | 1000 to 5000 nM | 100 to 1000 nM | > 10000 nM | 5 to 20 nM | 100 to 1000 nM | > 100 nM | 5000 to 10000 nM |
| C[C@@H]1CN(c2nn(-c3cnn(C(F)F)c3)c3cnccc23)C(=O)[C@]1(C#N)C1CC1 [Example 276, (3R,4S)-3-cyclopropyl-1-(1-(1-(difluoromethyl)-1H-pyrazol-4-yl)-1H-pyrazolo[3,4-c]pyridin-3-yl)-4-methyl-2-oxopyrrolidine-3-carbonitrile] | 1000 to 5000 nM | 100 to 1000 nM | > 10000 nM | 5 to 20 nM | 100 to 1000 nM | > 100 nM | 5000 to 10000 nM |
| CCn1cc(-n2nc(N3C[C@@H](C)[C@@](C#N)(C4CC4)C3=O)c3ccncc32)cn1 [Example 277, (3R,4S)-3-cyclopropyl-1-(1-(1-ethyl-1H-pyrazol-4-yl)-1H-pyrazolo[3,4-c]pyridin-3-yl)-4-methyl-2-oxopyrrolidine-3-carbonitrile] | 100 to 1000 nM | 100 to 1000 nM | 5000 to 10000 nM | < 5 nM | 100 to 1000 nM | > 100 nM | 1000 to 5000 nM |
| C[C@@H]1CN(c2nn(-c3cnn(C4COC4)c3)c3cnccc23)C(=O)[C@]1(C#N)C1CC1 [Example 278, (3R,4S)-3-cyclopropyl-4-methyl-1-(1-(1-(oxetan-3-yl)-1H-pyrazol-4-yl)-1H-pyrazolo[3,4-c]pyridin-3-yl)-2-oxopyrrolidine-3-carbonitrile] | 100 to 1000 nM | 100 to 1000 nM | 5000 to 10000 nM | < 5 nM | 100 to 1000 nM | > 100 nM | 5000 to 10000 nM |
| CC(C)n1cc(-n2nc(N3C[C@@H](C)[C@@](C#N)(C4CC4)C3=O)c3ccncc32)cn1 [Example 280, (3R,4S)-3-cyclopropyl-1-(1-(1-isopropyl-1H-pyrazol-4-yl)-1H-pyrazolo[3,4-c]pyridin-3-yl)-4-methyl-2-oxopyrrolidine-3-carbonitrile] | 100 to 1000 nM | 100 to 1000 nM | > 10000 nM | < 5 nM | 100 to 1000 nM | > 100 nM | 1000 to 5000 nM |
| Cc1cc(-n2nc(N3C[C@@H](C)[C@@](C#N)(C4CC4)C3=O)c3ccncc32)ccn1 [Example 281, (3R,4S)-3-cyclopropyl-4-methyl-1-(1-(2-methylpyridin-4-yl)-1H-pyrazolo[3,4-c]pyridin-3-yl)-2-oxopyrrolidine-3-carbonitrile] | 1000 to 5000 nM | 100 to 1000 nM | > 10000 nM | 5 to 20 nM | 100 to 1000 nM | > 100 nM | 1000 to 5000 nM |
| C[C@@H]1CN(c2nc(-c3cnn(C)c3)cc3ncsc23)C(=O)[C@]1(C#N)C1CC1 [Example 284, (3R,4S)-3-cyclopropyl-4-methyl-1-(6-(1-methyl-1H-pyrazol-4-yl)thiazolo[5,4-c]pyridin-4-yl)-2-oxopyrrolidine-3-carbonitrile] | < 100 nM | < 100 nM | < 100 nM | < 5 nM | < 100 nM | 5 to 20 nM | < 100 nM |

Next, values leading:

| IC50 [1] | IC50 [2] | IC50 [3] | IC50 [4] | IC50 [5] | IC50 [6] | IC50 [7] | Structure (SMILES) |
| --- | --- | --- | --- | --- | --- | --- | --- |
| < 100 nM | 100 to 1000 nM | 1000 to 5000 nM | 5 to 20 nM | 100 to 1000 nM | 50 to 100 nM | 1000 to 5000 nM | C[C@@H]1CN(c2c[nH]c3ncc(-c4cnn(C)c4)cc23)C(=O)[C@]1(C#N)C1CC1 [Example 288, (3R,4S)-3-cyclopropyl-4-methyl-1-(5-(1-methyl-1H-pyrazol-4-yl)-1H-pyrrolo[2,3-b]pyridin-3-yl)-2-oxopyrrolidine-3-carbonitrile] |
| < 100 nM | < 100 nM | < 100 nM | < 5 nM | < 100 nM | 5 to 20 nM | < 100 nM | C[C@@H]1CN(c2nc(-c3cnn(C4CC5(COC5)C4)c3)cn3nccc23)C(=O)[C@]1(C#N)C1CC1 [Example 289, (3R,4S)-1-(6-(1-(2-oxaspiro[3.3]heptan-6-yl)-1H-pyrazol-4-yl)pyrazolo[1,5-a]pyrazin-4-yl)-3-cyclopropyl-4-methyl-2-oxopyrrolidine-3-carbonitrile] |
| < 100 nM | < 100 nM | 100 to 1000 nM | < 5 nM | < 100 nM | 20 to 50 nM | 100 to 1000 nM | C[C@@H]1CN(c2nc(-c3cnn(C4CC(F)(F)C4)c3)cn3nccc23)C(=O)[C@]1(C#N)C1CC1 [Example 290, (3R,4S)-3-cyclopropyl-1-(6-(1-(3,3-difluorocyclobutyl)-1H-pyrazol-4-yl)pyrazolo[1,5-a]pyrazin-4-yl)-4-methyl-2-oxopyrrolidine-3-carbonitrile] |
| < 100 nM | < 100 nM | 1000 to 5000 nM | < 5 nM | < 100 nM | 50 to 100 nM | 1000 to 5000 nM | C[C@@H]1CN(c2nc(-c3cnn(C4COC4)c3)cn3ncc(F)c23)C(=O)[C@]1(C#N)C1CC1 [Example 291, (3R,4S)-3-cyclopropyl-1-(3-fluoro-6-(1-(oxetan-3-yl)-1H-pyrazol-4-yl)pyrazolo[1,5-a]pyrazin-4-yl)-4-methyl-2-oxopyrrolidine-3-carbonitrile] |
| < 100 nM | < 100 nM | 100 to 1000 nM | < 5 nM | < 100 nM | 20 to 50 nM | 100 to 1000 nM | C[C@@H]1CN(c2nc(-c3cnn([C@H]4C[C@@H](C#N)C4)c3)cn3ncc(F)c23)C(=O)[C@]1(C#N)C1CC1 [Example 292, (3R,4S)-1-(6-(1-((1s,3S)-3-cyanocyclobutyl)-1H-pyrazol-4-yl)-3-fluoropyrazolo[1,5-a]pyrazin-4-yl)-3-cyclopropyl-4-methyl-2-oxopyrrolidine-3-carbonitrile] |
| < 100 nM | < 100 nM | 100 to 1000 nM | < 5 nM | < 100 nM | 20 to 50 nM | 100 to 1000 nM | C[C@@H]1CN(c2nc(-c3cnn([C@H]4C[C@H](C#N)C4)c3)cn3ncc(F)c23)C(=O)[C@]1(C#N)C1CC1 [Example 293, (3R,4S)-1-(6-(1-((1r,3R)-3-cyanocyclobutyl)-1H-pyrazol-4-yl)-3-fluoropyrazolo[1,5-a]pyrazin-4-yl)-3-cyclopropyl-4-methyl-2-oxopyrrolidine-3-carbonitrile] |
| < 100 nM | < 100 nM | 100 to 1000 nM | < 5 nM | < 100 nM | 20 to 50 nM | 100 to 1000 nM | C[C@@H]1CN(c2nc(-c3cnn(-c4cccnc4)c3)cn3nccc23)C(=O)[C@]1(C#N)C1CC1 [Example 294, (3R,4S)-3-cyclopropyl-4-methyl-2-oxo-1-(6-(1-(pyridin-3-yl)-1H-pyrazol-4-yl)pyrazolo[1,5-a]pyrazin-4-yl)pyrrolidine-3-carbonitrile] |
